Measured values from PubChem BioAssay AID330 (DTP/NCI, 2004).
Where “and” joins values, the source holds several entries; their conditions need not be identical. Equal entries are not always repeated. Inconclusive results and toxic doses are left out. The calls were made as follows: active = survival T/C of 150% or more; inactive = T/C below 125% in these data.

Tested on: P388 leukemia ip, CD2F1 mice, survival T/C
Assay: NCI In Vivo Anticancer Drug Screen. Data for tumor model P388 Leukemia (intraperitoneal) in CD2F1 (CDF1) mice
Conditions: endpoint: median survival time, higher = longer survival
Summary of the method: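 Mice carrying the transplanted tumor received test compound or vehicle. Survival was recorded in each group, and the value is the treated-group measurement divided by that of the vehicle-treated control group.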

[1] = dose: 50.0 mg/kg/injection, schedule: Q01DX005 (ip), vehicle: saline
[2] = dose: 100.0 mg/kg/injection, schedule: Q01DX005 (ip), vehicle: saline
[3] = dose: 50.0 mg/kg/injection, schedule: Q01DX009 (ip), vehicle: saline with Tween-80
[4] = dose: 100.0 mg/kg/injection, schedule: Q01DX009 (ip), vehicle: saline with Tween-80
[5] = dose: 200.0 mg/kg/injection, schedule: Q01DX009 (ip), vehicle: saline with Tween-80
[6] = dose: 25.0 mg/kg/injection, schedule: Q01DX009 (ip), vehicle: saline with Tween-80
[7] = dose: 50.0 mg/kg/injection, schedule: Q01DX009 (ip), vehicle: saline
[8] = dose: 100.0 mg/kg/injection, schedule: Q01DX009 (ip), vehicle: saline
[9] = dose: 12.5 mg/kg/injection, schedule: Q01DX009 (ip), vehicle: saline
[10] = dose: 25.0 mg/kg/injection, schedule: Q01DX009 (ip), vehicle: saline

Measured: T/C

O=C(CO)C(OC1OC(CO)C(O)C(O)C1O)C(O)C(O)CO (configuration not stated)
inactive: [1] 109 % of control | [2] 97 % of control | dose: 200.0 mg/kg/injection, schedule: Q01DX005 (ip), vehicle: saline 109 % of control

CSC(=S)C(CNc1ncccn1)c1ccccc1 (configuration not stated)
inactive: dose: 60.0 mg/kg/injection, schedule: Q01DX005 (ip), vehicle: Klucel + Tween-80 89 % of control | dose: 120.0 mg/kg/injection, schedule: Q01DX005 (ip), vehicle: Klucel + Tween-80 89 % of control

COc1cc(C(=O)N/N=C/c2cccc3ccccc23)ccc1O
inactive: [3] 86 % of control | [4] 90 % of control | [5] 90 % of control

CCCCCCCCCCCCCCCC(=O)N(CCCCN(CCCN(C)C)C(=O)CCCCCCCCCCCCCCC)CCCN(C)C
inactive: dose: 12.5 mg/kg/injection, schedule: Q01DX009 (ip), vehicle: saline with Tween-80 90 % of control | [6] 90 % of control

CC(NCCCSc1ccccc1)C(O)c1ccc(O)cc1 (configuration not stated)
inactive: [6] 94 % of control | [3] 100 % of control

CC(=O)C(=Cc1ccc(C=C(C(C)=O)C(C)=O)cc1)C(C)=O
inactive: dose: 60.0 mg/kg/injection, schedule: Q01DX005 (ip), vehicle: saline with Tween-80 114 % of control | dose: 120.0 mg/kg/injection, schedule: Q01DX005 (ip), vehicle: saline with Tween-80 111 % of control

Cn1c2nc(-[n+]3ccc(Cc4ccccc4)cc3)nc-2c([O-])n(C)c1=O
inactive: dose: 100.0 mg/kg/injection, schedule: Q04DX002 (ip), vehicle: saline 100 % of control | dose: 200.0 mg/kg/injection, schedule: Q04DX002 (ip), vehicle: saline 99 % of control | dose: 400.0 mg/kg/injection, schedule: Q04DX002 (ip), vehicle: saline 95 % of control

Cn1nc(-c2cccc(F)c2)[n+](C)n1
inactive: [1] 102 % of control | [2] 98 % of control

COc1ccc(NC(=O)c2ccc3c(c2)OCO3)cc1
inactive: dose: 12.5 mg/kg/injection, schedule: Q01DX009 (ip), vehicle: other 108 % of control | dose: 25.0 mg/kg/injection, schedule: Q01DX009 (ip), vehicle: other 103 % of control | dose: 50.0 mg/kg/injection, schedule: Q01DX009 (ip), vehicle: other 94 % of control | dose: 100.0 mg/kg/injection, schedule: Q01DX009 (ip), vehicle: other 95 % of control | dose: 200.0 mg/kg/injection, schedule: Q01DX009 (ip), vehicle: other 91 % of control

COc1ccc(S(=O)(=O)N/N=C/c2cc(I)cc([N+](=O)[O-])c2O)cc1
inactive: dose: 50.0 mg/kg/injection, schedule: Q01DX005 (ip), vehicle: saline with Tween-80 102 % of control | dose: 100.0 mg/kg/injection, schedule: Q01DX005 (ip), vehicle: saline with Tween-80 100 % of control | dose: 200.0 mg/kg/injection, schedule: Q01DX005 (ip), vehicle: saline with Tween-80 104 % of control

O=C1NC(=O)C2(F)CC3(CCCCC3)C2N1 (configuration not stated)
inactive: dose: 1.5 mg/kg/injection, schedule: Q01DX005 (ip), vehicle: Klucel (hydroxypropylcellulose) (HPC) 100 % of control | dose: 3.0 mg/kg/injection, schedule: Q01DX005 (ip), vehicle: Klucel (hydroxypropylcellulose) (HPC) 102 % of control | dose: 6.0 mg/kg/injection, schedule: Q01DX005 (ip), vehicle: Klucel (hydroxypropylcellulose) (HPC) 94 % of control | dose: 12.5 mg/kg/injection, schedule: Q01DX001 (ip), vehicle: Klucel (hydroxypropylcellulose) (HPC) 103 % of control

C[Si](C)(c1ccc(Cl)cc1)c1ccc(Cl)cc1
inactive: [7] 97 % of control | [8] 100 % of control | dose: 200.0 mg/kg/injection, schedule: Q01DX009 (ip), vehicle: saline 99 % of control

CC(c1ccc2c(c1)CCC1C2C2OC2C2(O)CC=CC(=O)C12C)C1CC2(C)OC2(C)C(O)O1 (configuration not stated)
inactive: dose: 3.0 mg/kg/injection, schedule: Q01DX009 (ip), vehicle: saline with Tween-80 113 % of control | dose: 6.0 mg/kg/injection, schedule: Q01DX009 (ip), vehicle: saline with Tween-80 100 % of control | dose: 12.0 mg/kg/injection, schedule: Q01DX009 (ip), vehicle: saline with Tween-80 109 % of control | dose: 24.0 mg/kg/injection, schedule: Q01DX009 (ip), vehicle: saline with Tween-80 107 % of control | dose: 48.0 mg/kg/injection, schedule: Q01DX009 (ip), vehicle: saline with Tween-80 102 % of control

Clc1c(Cl)c(Cl)c(C[n+]2ccccc2)c(Cl)c1Cl
inactive: dose: 6.25 mg/kg/injection, schedule: Q01DX009 (ip), vehicle: saline 105 % of control | [9] 98 % of control | [10] 102 % of control | [7] 99 % of control

O=[N+]([O-])c1ccc(-c2nnn(CCCN3CCOCC3)c2N2CCCCC2)cc1
inactive: dose: 50.0 mg/kg/injection, schedule: Q01DX005 (ip), vehicle: Klucel (hydroxypropylcellulose) (HPC) 107 % of control | dose: 100.0 mg/kg/injection, schedule: Q01DX005 (ip), vehicle: Klucel (hydroxypropylcellulose) (HPC) 107 % of control | dose: 200.0 mg/kg/injection, schedule: Q01DX005 (ip), vehicle: Klucel (hydroxypropylcellulose) (HPC) 107 % of control

CCOC(=O)c1ccccn1
inactive: [9] 95 % of control | [10] 98 % of control | [7] 101 % of control | [8] 100 % of control

C/C(=N\NC(N)=Nc1ccccc1)c1ccc(Cl)c(Cl)c1
inactive: dose: 25.0 mg/kg/injection, schedule: Q04DX002 (ip), vehicle: saline with Tween-80 100 % of control | dose: 50.0 mg/kg/injection, schedule: Q04DX002 (ip), vehicle: saline with Tween-80 101 % of control | dose: 100.0 mg/kg/injection, schedule: Q04DX002 (ip), vehicle: saline with Tween-80 110 % of control

C=Cc1ccc2cccc(O)c2n1
inactive: dose: 25.0 mg/kg/injection, schedule: Q01DX001 (ip), vehicle: saline with Tween-80 106 % of control | dose: 50.0 mg/kg/injection, schedule: Q01DX001 (ip), vehicle: saline with Tween-80 106 % of control | dose: 100.0 mg/kg/injection, schedule: Q01DX001 (ip), vehicle: saline with Tween-80 89 % of control and 94 % of control

C/C=C/C(O)CC1CCCCN1 (configuration not stated)
inactive: dose: 100.0 mg/kg/injection, schedule: Q04DX003 (ip), vehicle: saline 100 % of control

CC(C)(O)/C=C/C(=O)[C@](C)(O)[C@H]1[C@H](O)C[C@@]2(C)[C@@H]3CC=C4[C@@H](C[C@H](O)C(=O)C4(C)C)[C@]3(C)C(=O)C[C@]12C
inactive: dose: 0.25 mg/kg/injection, schedule: Q01DX009 (ip), vehicle: saline + Tween-80 + alcohol 118 % of control | dose: 0.25 mg/kg/injection, schedule: Q01DX009 (ip), vehicle: saline with Tween-80 105 % of control | dose: 0.25 mg/kg/injection, schedule: Q01DX009 (ip), vehicle: saline 113 % of control | dose: 0.5 mg/kg/injection, schedule: Q01DX009 (ip), vehicle: saline + Tween-80 + alcohol 121 % of control | dose: 0.5 mg/kg/injection, schedule: Q01DX009 (ip), vehicle: saline with Tween-80 108 % of control | dose: 0.5 mg/kg/injection, schedule: Q01DX009 (ip), vehicle: saline 111 % of control | dose: 0.5 mg/kg/injection, schedule: Q01DX010 (ip), vehicle: saline 95 % of control | dose: 0.96 mg/kg/injection, schedule: Q01DX009 (ip), vehicle: saline with Tween-80 105 % of control | dose: 1.0 mg/kg/injection, schedule: Q01DX009 (ip), vehicle: saline + Tween-80 + alcohol 118 % of control | dose: 1.0 mg/kg/injection, schedule: Q01DX009 (ip), vehicle: saline with Tween-80 119 % of control | dose: 1.0 mg/kg/injection, schedule: Q01DX009 (ip), vehicle: saline 111 % of control
active: dose: 0.96 mg/kg/injection, schedule: Q01DX009 (ip), vehicle: saline + Tween-80 + alcohol 152 % of control

CCCCCOP(=O)(N=[N+]=[N-])OCCCCC
inactive: dose: 0.78 mg/kg/injection, schedule: Q01DX009 (ip), vehicle: saline with Tween-80 98 % of control | dose: 1.56 mg/kg/injection, schedule: Q01DX009 (ip), vehicle: saline with Tween-80 98 % of control

C#CCOc1ccc(Cl)cc1C(=O)O
inactive: [3] 105 % of control | [4] 102 % of control | [5] 97 % of control

COc1ccc(/C=C2/C(=O)N(c3ccccc3)N=C2C)cc1OC
inactive: dose: 60.0 mg/kg/injection, schedule: Q01DX005 (ip), vehicle: Klucel (hydroxypropylcellulose) (HPC) 101 % of control | dose: 120.0 mg/kg/injection, schedule: Q01DX005 (ip), vehicle: Klucel (hydroxypropylcellulose) (HPC) 93 % of control | dose: 240.0 mg/kg/injection, schedule: Q01DX005 (ip), vehicle: Klucel (hydroxypropylcellulose) (HPC) 90 % of control
